Results: patent publication US20250163104A1, “MACROCYCLIC IMMUNOMODULATORS” (priority 2021, published 2025)
Where a SMILES comes first, the peptide text is derived from it. Bridges are numbered along the chain shown (N, C = ends). [ ]: non-standard residue; d: D form. The star is where a group is joined. ξ: configuration not given here. Bip = N[C@@H](Cc1ccc(-c2ccccc2)cc1)C(=O)O; Phe(4-CN) = N#Cc1ccc(C[C@H](N)C(=O)O)cc1; Phe(3-Me) = Cc1cccc(C[C@H](N)C(=O)O)c1; Ala(cPent) = N[C@@H](CC1CCCC1)C(=O)O; Val(3-OH) = CC(C)(O)[C@H](N)C(=O)O; 4Pal = N[C@@H](Cc1ccncc1)C(=O)O; Cha = N[C@@H](CC1CCCCC1)C(=O)O; Cit = NC(=O)NCCC[C@H](N)C(=O)O; Ile(3ξ) = CCC(C)[C@H](N)C(=O)O; dNle = CCCC[C@@H](N)C(=O)O; Carboxymethyl = O=C(O)C*; Orn = NCCC[C@H](N)C(=O)O; Pra = C#CC[C@H](N)C(=O)O; Dab = NCC[C@H](N)C(=O)O; Dap = NC[C@H](N)C(=O)O; ξPra = C#CCC(N)C(=O)O

target: T1, human PD-1 / PD-L1-Ig binding on Jurkat cell line over-expressing human PD-1 (Jurkat-PD-1) (Homo sapiens, UniProt Q15116); assay: Jurkat-PD-1 Cell Binding High-Content Screening Assay (CBA); type: cell-based; conditions: Jurkat-PD-1 cells, PE-labeled PD-L1-Ig 20 nM final; read-out: Jurkat HPD1_PDL1 IC50
T1 construct: expressed in transfected cells; host or cells: Jurkat
T1 sequence (Q15116 25-288): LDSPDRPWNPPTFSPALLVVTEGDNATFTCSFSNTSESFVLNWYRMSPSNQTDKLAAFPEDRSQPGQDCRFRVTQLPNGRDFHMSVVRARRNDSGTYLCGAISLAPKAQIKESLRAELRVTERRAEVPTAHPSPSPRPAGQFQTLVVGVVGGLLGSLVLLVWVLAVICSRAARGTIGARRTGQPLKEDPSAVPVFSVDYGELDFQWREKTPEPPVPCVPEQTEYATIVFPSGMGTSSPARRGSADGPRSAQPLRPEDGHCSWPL
Method in brief: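 PE-PD-L1-Ig 20 nM final; cells in DMEM/10% FCS; cpd pre-incubation 2 h, 37° C; ligand 1 h; PFA fix + Hoechst 33342; high-content imaging read-out.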

Point of comparison: CCCC[C@H]1NC(=O)[C@H](CCCN)NC(=O)[C@H]([C@@H](C)CC)NC(=O)[C@H](Cc2ccc(-c3ccccc3)cc2)NC(=O)[C@H](C(C)C)NC(=O)[C@H](Cc2c[nH]c3ccccc23)NC(=O)[C@H](CC(=O)O)NC(=O)[C@H](Cc2ccc(O)cc2)NC(=O)[C@H](CC(N)=O)NC(=O)CSC[C@@H](C(=O)N[C@@H](C)C(N)=O)NC(=O)[C@H]([C@@H](C)O)NC(=O)[C@H](C(C)C)NC(=O)[C@H](CC2CCCCC2)NC(=O)[C@H](CCN)NC1=O [Compound 1712] ({CH2CO}-NYDWV[Bip]I[Orn][dNle][Dab][Cha]VTCA-NH2; thioether N-14), IC50 25.1 nM. Against it:
- C#CC[C@H](NC(=O)CNC(=O)[C@@H]1CSCC(=O)N[C@@H](CCN)C(=O)N[C@@H](Cc2ccc(OCC(=O)O)cc2)C(=O)N[C@@H](CC(=O)O)C(=O)N[C@@H](Cc2c[nH]c3ccccc23)C(=O)N[C@@H](C(C)C)C(=O)N[C@@H](Cc2ccc(-c3ccccc3)cc2)C(=O)N[C@@H](C(C)CC)C(=O)N[C@@H](CCCN)C(=O)N[C@H](CC(C)C)C(=O)N[C@@H](CCN)C(=O)N[C@@H](CC2CCCCC2)C(=O)N[C@@H](C(C)(C)O)C(=O)N[C@@H](CO)C(=O)N1)C(=O)O (stereo partly drawn) [Compound 2319] ({CH2CO}-[Dab]Y(Carboxymethyl)DWV[Bip][Ile(3ξ)][Orn][dL][Dab][Cha][Val(3-OH)]SCG[Pra]-OH; thioether N-14) — within 1.5-fold, 24.3 nM
- COc1cccc(C[C@@H]2NC(=O)[C@H](CC(=O)O)NC(=O)[C@H](Cc3ccc(C(=O)O)cc3)NC(=O)[C@H](Cc3ccc(OCC(=O)O)cc3)NC(=O)CSC[C@@H](C(=O)N[C@@H](C)C(N)=O)NC(=O)[C@H]([C@@H](C)O)NC(=O)[C@H](C(C)C)NC(=O)[C@H](CC3CCCCC3)NC(=O)[C@H](CCN)NC(=O)[C@@H](CC(C)C)NC(=O)[C@H](CCCN)NC(=O)[C@H](CCC(=O)O)NC(=O)[C@H](Cc3ccc(-c4ccccc4)cc3)NC(=O)[C@H](C(C)C)NC2=O)c1 [Compound 1541] — 1.5-fold lower, 16.6 nM
- CC[C@H](C)[C@@H]1NC(=O)[C@H](Cc2ccc(-c3ccccc3)cc2)NC(=O)[C@H](C(C)C)NC(=O)[C@H](Cc2c[nH]c3ccccc23)NC(=O)[C@H](CC(=O)O)NC(=O)[C@H](Cc2ccc(O)cc2)NC(=O)[C@H](CC(N)=O)NC(=O)CSC[C@@H](C(=O)NCC(N)=O)NC(=O)[C@H](CO)NC(=O)[C@H](C(C)C)NC(=O)[C@H](CC(C)C)NC(=O)[C@H](CCN)NC(=O)[C@@H](CC(C)C)NC(=O)[C@H](CCN)NC1=O [Compound 1123] ({CH2CO}-NYDWV[Bip]I[Dab][dL][Dab]LVSCG-NH2; thioether N-14) — 1.7-fold lower, 14.8 nM
- CC(C)C[C@H]1NC(=O)[C@H](CCCN)NC(=O)[C@H](C(C)C)NC(=O)[C@H](Cc2ccc(-c3ccccc3)cc2)NC(=O)[C@H](C(C)C)NC(=O)[C@H](Cc2cccc(Cl)c2)NC(=O)[C@H](CC(=O)O)NC(=O)[C@H](Cc2ccc(OCC(=O)O)cc2)NC(=O)[C@H](Cc2ccncc2)NC(=O)CSC[C@@H](C(=O)N[C@@H](C)C(N)=O)NC(=O)[C@H]([C@@H](C)O)NC(=O)[C@H](C(C)C)NC(=O)[C@H](CC2CCCCC2)NC(=O)[C@H](CCN)NC1=O [Compound 1575] — 1.5-fold lower, 16.6 nM
- CC(C)C[C@@H]1NC(=O)[C@H](Cc2c[nH]c3ccccc23)NC(=O)[C@H](CC(=O)O)NC(=O)[C@H](Cc2ccncc2)NC(=O)[C@H](CN)NC(=O)CSC[C@@H](C(=O)NCC(N)=O)NC(=O)[C@H](CO)NC(=O)[C@H](C(C)C)NC(=O)[C@H](CC(C)C)NC(=O)[C@H](CC(N)=O)NC(=O)[C@@H](CC(C)C)NC(=O)[C@H](CCCN)NC(=O)[C@H](C(C)C)NC(=O)[C@H](Cc2ccc(-c3ccccc3)cc2)NC1=O [Compound 1285] ({CH2CO}-[Dap][4Pal]DWL[Bip]V[Orn][dL]NLVSCG-NH2; thioether N-14) — 1.7-fold higher, 42.6 nM
- C#CCC(NC(=O)[C@H](CN)NC(=O)[C@@H]1CSCC(=O)N[C@@H](Cc2ccncc2)C(=O)N[C@@H](Cc2ccc(OCC(=O)O)cc2)C(=O)N[C@@H](CC(=O)O)C(=O)N[C@@H](Cc2c[nH]c3ccccc23)C(=O)N[C@@H](C(C)C)C(=O)N[C@@H](Cc2ccc(-c3ccccc3)cc2)C(=O)N[C@@H]([C@@H](C)CC)C(=O)N[C@@H](CCCN)C(=O)N[C@H](CC(C)C)C(=O)N[C@@H](CCN)C(=O)N[C@@H](CC(C)C)C(=O)N[C@@H](C(C)C)C(=O)N[C@@H]([C@@H](C)O)C(=O)N1)C(N)=O (stereo partly drawn) [Compound 1758] ({CH2CO}-[4Pal]Y(Carboxymethyl)DWV[Bip]I[Orn][dL][Dab]LVTC[Dap][ξPra]-NH2; thioether N-14) — 3.3-fold lower, 7.5 nM
- CC(C)C[C@H]1NC(=O)[C@H](CCCN)NC(=O)[C@H](CCC(=O)O)NC(=O)[C@H](Cc2ccc(-c3ccccc3)cc2)NC(=O)[C@H](CC2CCCC2)NC(=O)[C@H](Cc2c[nH]c3ccccc23)NC(=O)[C@H](CC(=O)O)NC(=O)[C@H](Cc2ccc(OCC(=O)O)cc2)NC(=O)[C@H](CN)NC(=O)CSC[C@@H](C(=O)N[C@@H](C)C(N)=O)NC(=O)[C@H]([C@@H](C)O)NC(=O)[C@H](C(C)C)NC(=O)[C@H](CC2CCCCC2)NC(=O)[C@H](CCN)NC1=O [Compound 1715] ({CH2CO}-[Dap]Y(Carboxymethyl)DW[Ala(cPent)][Bip]E[Orn][dL][Dab][Cha]VTCA-NH2; thioether N-14) — 1.5-fold higher, 38.4 nM
- CC(C)C[C@@H]1NC(=O)[C@H](CCN)NC(=O)[C@@H](CC(C)C)NC(=O)[C@H](CCCN)NC(=O)[C@H](CCCNC(N)=O)NC(=O)[C@H](Cc2ccc(-c3ccccc3)cc2)NC(=O)[C@H](C(C)C)NC(=O)[C@H](Cc2c[nH]c3ccccc23)NC(=O)[C@H](CC(=O)O)NC(=O)[C@H](Cc2ccc(OCC(=O)O)cc2)NC(=O)[C@H](Cc2ccncc2)NC(=O)CSC[C@@H](C(=O)N[C@@H](C)C(N)=O)NC(=O)[C@H]([C@@H](C)O)NC(=O)[C@H](C(C)C)NC1=O [Compound 1042] ({CH2CO}-[4Pal]Y(Carboxymethyl)DWV[Bip][Cit][Orn][dL][Dab]LVTCA-NH2; thioether N-14) — 1.9-fold lower, 13 nM
- CC(C)C[C@H]1NC(=O)[C@H](CCCN)NC(=O)[C@H](CCC(=O)O)NC(=O)[C@H](Cc2ccc(-c3ccccc3)cc2)NC(=O)[C@H](C(C)C)NC(=O)[C@H](Cc2c[nH]c3ccccc23)NC(=O)[C@H](CC(=O)O)NC(=O)[C@H](Cc2ccc(-c3ccc(C(=O)O)cc3)cc2)NC(=O)[C@H](Cc2ccncc2)NC(=O)CSC[C@@H](C(=O)N[C@@H](C)C(N)=O)NC(=O)[C@H]([C@@H](C)O)NC(=O)[C@H](C(C)C)NC(=O)[C@H](CC2CCCCC2)NC(=O)[C@H](CCN)NC1=O [Compound 2169] — 1.6-fold higher, 40.8 nM
- Cc1cccc(C[C@@H]2NC(=O)[C@H](CC(=O)O)NC(=O)[C@H](Cc3ccc(C#N)cc3)NC(=O)[C@H](Cc3ccncc3)NC(=O)CSC[C@@H](C(=O)N[C@@H](CCN)C(N)=O)NC(=O)[C@H](Cc3c[nH]cn3)NC(=O)[C@H](C(C)(C)O)NC(=O)[C@H](CC3CCCCC3)NC(=O)[C@H](CCN)NC(=O)[C@@H](CC(C)C)NC(=O)[C@H](CCCN)NC(=O)[C@H](Cc3ccc(OCC(=O)O)cc3)NC(=O)[C@H](Cc3ccc(-c4ccccc4)cc3)NC(=O)[C@H](Cc3ccc(OCC(=O)O)cc3)NC2=O)c1 [Compound 2675] ({CH2CO}-[4Pal][Phe(4-CN)]D[Phe(3-Me)]Y(Carboxymethyl)[Bip]Y(Carboxymethyl)[Orn][dL][Dab][Cha][Val(3-OH)]HC[Dab]-NH2; thioether N-14) — 32-fold higher, 795 nM
